SMILES strings stand for the structures. Calls of active or inactive are those of the source. No cut-off for these calls is given here. *1 amine or outer side, *2 acyl side, *3 side chain or, on linkers, in order; H or OH if unused. Where a SMILES comes first, the peptide text is derived from it. Bridges are numbered along the chain shown (N, C = ends). [ ]: non-standard residue; d: D form. The star is where a group is joined. X1 = O=C1C[C@@H](C(=O)[*:2])N([*:1])C[C@H]1CS[C@@H]1CN2CCC1CC2; NMePhe(4-NMe2) = CN[C@@H](Cc1ccc(N(C)C)cc1)C(=O)O; Picolinoyl(3-OH) = O=C(c1ncccc1O)*; Phg = N[C@H](C(=O)O)c1ccccc1; dAbu = CC[C@@H](N)C(=O)O

Experiment [1] deals with COMI. Nature of the experiment: Growth inhibition of human COMI cells. It counts as functional.
The subject of experiment [2] is VIPI. Nature of the experiment: Growth inhibition of human VIPI cells. It counts as functional.
Experiment [3] in a line: Potency index, ratio of temozolomide GI50 to test compound GI50 for human VIPI cells in the presence of quinupristin. In kind it is functional.
The subject of experiment [4] is COMI. Nature of the experiment: Potency index, ratio of temozolomide GI50 to test compound GI50 for human COMI cells in the presence of quinupristin. It counts as functional.
Experiment [5] has as its system COMI. Nature of the experiment: Growth inhibition of human COMI cells incubated for 48 hrs by Hoechst 33342/PI staining based analysis. In kind it is functional.
Experiment [6] has as its system VIPI. Nature of the experiment: Growth inhibition of human VIPI cells incubated for 48 hrs by Hoechst 33342/PI staining based analysis. In kind it is functional.
The test system of experiment [7] is COMI. Nature of the experiment: Growth inhibition of human COMI cells incubated for 48 hrs in the presence of quinupristin by Hoechst 33342/PI staining based analysis. It counts as functional.
For experiment [8], the system named is VIPI. Nature of the experiment: Growth inhibition of human VIPI cells incubated for 48 hrs in the presence of quinupristin by Hoechst 33342/PI staining based analysis. It counts as functional.
Experiment [9] has as its system COMI. Nature of the experiment: Inhibition of mitochondrial translation in human COMI cells assessed as decrease in ND3 expression level at 0.38 uM incubated for 24 hrs in the presence of emetine by [35S]-methionine labelling based SDS-PAGE analysis. In kind it is functional, cell-based.
For experiment [10], the system named is COMI. Nature of the experiment: Inhibition of mitochondrial translation in human COMI cells assessed as decrease in COX1 expression level at 0.38 uM incubated for 24 hrs in the presence of emetine by [35S]-methionine labelling based SDS-PAGE analysis. In kind it is functional, cell-based.
The test system of experiment [11] is COMI. Nature of the experiment: Inhibition of mitochondrial translation in human COMI cells assessed as decrease in COX2 expression level at 0.38 uM incubated for 24 hrs in the presence of emetine by [35S]-methionine labelling based SDS-PAGE analysis. In kind it is functional, cell-based.
The test system of experiment [12] is COMI. Nature of the experiment: Inhibition of mitochondrial translation in human COMI cells assessed as decrease in ND3 expression level at 0.5 to 5 uM incubated for 48 hrs by immunoblotting analysis. Conditions: dose 0.5-5 µM. It counts as functional, cell-based.
For experiment [13], the system named is COMI. Nature of the experiment: Inhibition of mitochondrial translation in human COMI cells assessed as decrease in COX1 expression level at 0.5 to 5 uM incubated for 48 hrs by immunoblotting analysis. In kind it is functional, cell-based. Conditions: dose 0.5-5 µM. (A western blot detects proteins with antibodies after separation by electrophoresis.)
For experiment [14], the system named is COMI. Nature of the experiment: Inhibition of mitochondrial translation in human COMI cells assessed as decrease in COX2 expression level at 0.5 to 5 uM incubated for 48 hrs by immunoblotting analysis. It counts as functional, cell-based. The note with it: dose 0.5-5 µM.
Experiment [15] has as its system COMI. Nature of the experiment: Inhibition of mitochondrial translation in human COMI cells assessed as increase in COX4 expression level at 0.5 to 5 uM incubated for 48 hrs by immunoblotting analysis. In kind it is functional, cell-based. Conditions: dose 0.5-5 µM.
The test system of experiment [16] is COMI. Nature of the experiment: Inhibition of mitochondrial translation in human COMI cells assessed as decrease in ND3 expression level at 0.5 uM incubated for 24 hrs in the presence of quinupristin and emetine by [35S]-methionine labelling based SDS-PAGE analysis. It counts as functional, cell-based.
In experiment [17] the test system is COMI. Nature of the experiment: Inhibition of mitochondrial translation in human COMI cells assessed as decrease in COX1 expression level at 0.5 uM incubated for 24 hrs in the presence of quinupristin and emetine by [35S]-methionine labelling based SDS-PAGE analysis. In kind it is functional, cell-based.
Experiment [18] relates to COMI. Nature of the experiment: Inhibition of mitochondrial translation in human COMI cells assessed as decrease in COX2 expression level at 0.5 uM incubated for 24 hrs in the presence of quinupristin and emetine by [35S]-methionine labelling based SDS-PAGE analysis. In kind it is functional, cell-based.
The subject of experiment [19] is COMI. Nature of the experiment: Inhibition of mitochondrial translation in human COMI cells assessed as decrease in ND3 expression level at 0.5 to 5 uM incubated for 48 hrs in the presence of quinupristin by immunoblotting analysis. It counts as functional, cell-based. Conditions: dose 0.5-5 µM.
The test system of experiment [20] is COMI. Nature of the experiment: Inhibition of mitochondrial translation in human COMI cells assessed as decrease in COX1 expression level at 0.5 to 5 uM incubated for 48 hrs in the presence of quinupristin by immunoblotting analysis. It counts as functional, cell-based. The note with it: dose 0.5-5 µM.
Experiment [21] deals with COMI. Nature of the experiment: Inhibition of mitochondrial translation in human COMI cells assessed as decrease in COX2 expression level at 0.5 to 5 uM incubated for 48 hrs in the presence of quinupristin by immunoblotting analysis. In kind it is functional, cell-based. Conditions: dose 0.5-5 µM.
For experiment [22], the system named is COMI. Nature of the experiment: Inhibition of mitochondrial translation in human COMI cells assessed as increase in COX4 expression level at 0.5 to 5 uM incubated for 48 hrs in the presence of quinupristin by immunoblotting analysis. In kind it is functional, cell-based. The note with it: dose 0.5-5 µM.
The test system of experiment [23] is COMI. Nature of the experiment: Growth inhibition of human COMI cells in the presence of quinupristin. It counts as functional.
Experiment [24] deals with VIPI. Nature of the experiment: Growth inhibition of human VIPI cells in the presence of quinupristin. It counts as functional.
In experiment [25] the test system is COMI. Nature of the experiment: Potency index, ratio of temozolomide GI50 to test compound GI50 for human COMI cells in the presence of dalfopristin. In kind it is functional.
A short description of experiment [26]: Potency index, ratio of temozolomide GI50 to test compound GI50 for human VIPI cells in the presence of dalfopristin. It counts as functional.
Experiment [27] has as its system COMI. Nature of the experiment: Growth inhibition of human COMI cells incubated for 48 hrs in the presence of dalfopristin by Hoechst 33342/PI staining based analysis. In kind it is functional.
Experiment [28] concerns VIPI. Nature of the experiment: Growth inhibition of human VIPI cells incubated for 48 hrs in the presence of dalfopristin by Hoechst 33342/PI staining based analysis. In kind it is functional.
Experiment [29] deals with COMI. Nature of the experiment: Inhibition of mitochondrial translation in human COMI cells assessed as decrease in ND3 expression level at 0.38 to 2 uM incubated for 24 hrs in the presence of emetine by [35S]-methionine labelling based SDS-PAGE analysis. It counts as functional, cell-based. The note with it: dose 0.38-2 µM.
The subject of experiment [30] is COMI. Nature of the experiment: Inhibition of mitochondrial translation in human COMI cells assessed as decrease in COX1 expression level at 0.38 to 2 uM incubated for 24 hrs in the presence of emetine by [35S]-methionine labelling based SDS-PAGE analysis. It counts as functional, cell-based. The note with it: dose 0.38-2 µM.
Experiment [31] has as its system COMI. Nature of the experiment: Inhibition of mitochondrial translation in human COMI cells assessed as decrease in COX2 expression level at 0.38 to 2 uM incubated for 24 hrs in the presence of emetine by [35S]-methionine labelling based SDS-PAGE analysis. It counts as functional, cell-based. The note with it: dose 0.38-2 µM.
Experiment [32] concerns COMI. Nature of the experiment: Inhibition of mitochondrial translation in human COMI cells assessed as decrease in ND3 expression level at 0.5 uM incubated for 24 hrs in the presence of dalfopristin and emetine by [35S]-methionine labelling based SDS-PAGE analysis. It counts as functional, cell-based.
Experiment [33] has as its system COMI. Nature of the experiment: Inhibition of mitochondrial translation in human COMI cells assessed as decrease in COX1 expression level at 0.5 uM incubated for 24 hrs in the presence of dalfopristin and emetine by [35S]-methionine labelling based SDS-PAGE analysis. In kind it is functional, cell-based.
The test system of experiment [34] is COMI. Nature of the experiment: Inhibition of mitochondrial translation in human COMI cells assessed as decrease in COX2 expression level at 0.5 uM incubated for 24 hrs in the presence of dalfopristin and emetine by [35S]-methionine labelling based SDS-PAGE analysis. In kind it is functional, cell-based.
Experiment [35] deals with COMI. Nature of the experiment: Inhibition of mitochondrial translation in human COMI cells assessed as decrease in ND3 expression level at 0.5 to 5 uM incubated for 48 hrs in the presence of dalfopristin by immunoblotting analysis. In kind it is functional, cell-based. The note with it: dose 0.5-5 µM.
Experiment [36] deals with COMI. Nature of the experiment: Inhibition of mitochondrial translation in human COMI cells assessed as decrease in COX1 expression level at 0.5 to 5 uM incubated for 48 hrs in the presence of dalfopristin by immunoblotting analysis. In kind it is functional, cell-based. Conditions: dose 0.5-5 µM.
Experiment [37] has as its system COMI. Nature of the experiment: Inhibition of mitochondrial translation in human COMI cells assessed as decrease in COX2 expression level at 0.5 to 5 uM incubated for 48 hrs in the presence of dalfopristin by immunoblotting analysis. In kind it is functional, cell-based. Conditions: dose 0.5-5 µM.
For experiment [38], the system named is COMI. Nature of the experiment: Inhibition of mitochondrial translation in human COMI cells assessed as increase in COX4 expression level at 0.5 to 5 uM incubated for 48 hrs in the presence of dalfopristin by immunoblotting analysis. Conditions: dose 0.5-5 µM. It counts as functional, cell-based.
For experiment [39], the system named is COMI. Nature of the experiment: Growth inhibition of human COMI cells in the presence of dalfopristin. It counts as functional.
The test system of experiment [40] is VIPI. Nature of the experiment: Growth inhibition of human VIPI cells in the presence of dalfopristin. In kind it is functional.

One may read the GI50 as the concentration that inhibits growth by half. Consider `Cn1nnc2c(C(N)=O)ncn2c1=O` [TEMOZOLOMIDE], for which the GI50 was determined as 96.5 µM in [1] and 338 µM in experiment [2].
Consider `CCN(CC)CCS(=O)(=O)[C@@H]1CCN2C(=O)c3coc(n3)CC(=O)C[C@H](O)/C=C(C)/C=C/CNC(=O)/C=C/[C@@H](C)[C@@H](C(C)C)OC(=O)[C@@H]12` [DALFOPRISTIN], for which the RatioGI50 in experiment [3] and in experiment [4] was 15 each time. Also, the GI50 in [5] was determined as 8.6 µM; in experiment [6] it was 16.2 µM; in experiment [7] it was 6.5 µM; in experiment [8], 20.2 µM; in experiment [23] it was 6.5 µM; in experiment [24], 20.2 µM. For the same compound, the inhibition result in experiment [9], in [10], in [11], in experiment [12], in [13] and in experiment [14] was “Active” each time. For the same compound, the inhibition result in experiment [15], in experiment [16], in experiment [17], in [18], in experiment [19] and in experiment [20] was “Active” throughout. The inhibition entry in experiment [21] and in experiment [22] was “Active” in each case.
For the compound `CC[C@H]1NC(=O)[C@@H](NC(=O)c2ncccc2O)[C@@H](C)OC(=O)[C@H](c2ccccc2)NC(=O)[C@@H]2CC(=O)[C@H](CS[C@@H]3CN4CCC3CC4)CN2C(=O)[C@H](Cc2ccc(N(C)C)cc2)N(C)C(=O)[C@@H]2CCCN2C1=O` [QUINUPRISTIN] ({Picolinoyl(3-OH)}-T[dAbu]P[NMePhe(4-NMe2)][X1][Phg]; ester 1-C), the RatioGI50 in experiment [25] and in experiment [26] was 15 each time. Moreover, the GI50 in experiment [5] was found to be 3 µM; in experiment [6], 21.4 µM; in experiment [27], 6.5 µM; in experiment [28], 20.2 µM; in experiment [39], 6.5 µM; in experiment [40], 20.2 µM. For the same compound, the inhibition entry in [29], in experiment [30], in experiment [31], in experiment [12], in experiment [13] and in [14] was “inactive” in each case. Moreover, the inhibition entry in experiment [15] was “inactive”. The inhibition result in experiment [32], in experiment [33], in [34], in experiment [35], in [36] and in [37] was “Active” throughout. Besides, in experiment [38], the inhibition entry is “Active”.

The values are drawn from ChEMBL document CHEMBL5331076, “Streptogramin A derivatives as mitochondrial translation inhibitors to suppress glioblastoma stem cell growth” (Eur J Med Chem, 2023).
